In paper PMC8379681 (Cell reports, 2021):

Molecular target: SPAK (Homo sapiens, UniProt Q9UEW8)
Assay type: biochemical

IC50: 8.23 µM
Structure (SMILES): Nc1ncnc2occ(-c3ccc(NC(=O)Nc4cc(C(F)(F)F)ccc4F)cc3)c12 [YU252, YU239252]
